In the supplement of paper PMC11451515:

System: P12-Ichikawa
Test: cell viability relative to DMSO control; higher = less cytotoxic
Conditions: 48 h
Outline: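 In 1536-well plates, 5 μl of leukemia cells were seeded per well: 500 cells/well for NOMO1 or SEM and 1000 cells/well for P12-Ichikawa. Each line had first been adapted for at least four passages in each medium. Library compounds in DMSO were pin-dosed at 11 threefold concentrations between 47 μM and 0.79 nM, and CellTiter-Glo One luminescence was read after 48 h at 37°C. Viability is a per-plate percentage relative to DMSO wells, with cell-free wells as background.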

[1] = HPLM + 10% dialyzed FBS, 0.000781 µM
[2] = HPLM + 10% dialyzed FBS, 0.00234 µM
[3] = HPLM + 10% dialyzed FBS, 0.00702 µM
[4] = HPLM + 10% dialyzed FBS, 0.0211 µM
[5] = HPLM + 10% dialyzed FBS, 0.0632 µM
[6] = HPLM + 10% dialyzed FBS, 0.19 µM
[7] = HPLM + 10% dialyzed FBS, 0.569 µM
[8] = HPLM + 10% dialyzed FBS, 1.71 µM
[9] = HPLM + 10% dialyzed FBS, 5.12 µM
[10] = HPLM + 10% dialyzed FBS, 15.4 µM
[11] = HPLM + 10% dialyzed FBS, 46.1 µM
[12] = RPMI 5 mM glucose + 10% FBS, 0.000781 µM
[13] = RPMI 5 mM glucose + 10% FBS, 0.00234 µM
[14] = RPMI 5 mM glucose + 10% FBS, 0.00702 µM
[15] = RPMI 5 mM glucose + 10% FBS, 0.0211 µM
[16] = RPMI 5 mM glucose + 10% FBS, 0.0632 µM
[17] = RPMI 5 mM glucose + 10% FBS, 0.19 µM
[18] = RPMI 5 mM glucose + 10% FBS, 0.569 µM
[19] = RPMI 5 mM glucose + 10% FBS, 1.71 µM
[20] = RPMI 5 mM glucose + 10% FBS, 5.12 µM
[21] = RPMI 5 mM glucose + 10% FBS, 15.4 µM
[22] = RPMI 5 mM glucose + 10% FBS, 46.1 µM
[23] = RPMI 5 mM glucose + 10% dialyzed FBS, 0.000781 µM
[24] = RPMI 5 mM glucose + 10% dialyzed FBS, 0.00234 µM
[25] = RPMI 5 mM glucose + 10% dialyzed FBS, 0.00702 µM
[26] = RPMI 5 mM glucose + 10% dialyzed FBS, 0.0211 µM
[27] = RPMI 5 mM glucose + 10% dialyzed FBS, 0.0632 µM
[28] = RPMI 5 mM glucose + 10% dialyzed FBS, 0.19 µM
[29] = RPMI 5 mM glucose + 10% dialyzed FBS, 0.569 µM
[30] = RPMI 5 mM glucose + 10% dialyzed FBS, 1.71 µM
[31] = RPMI 5 mM glucose + 10% dialyzed FBS, 5.12 µM
[32] = RPMI 5 mM glucose + 10% dialyzed FBS, 15.4 µM
[33] = RPMI 5 mM glucose + 10% dialyzed FBS, 46.1 µM

SMILES	cell viability [1] [%]	cell viability [2] [%]	cell viability [3] [%]	cell viability [4] [%]	cell viability [5] [%]	cell viability [6] [%]	cell viability [7] [%]	cell viability [8] [%]	cell viability [9] [%]	cell viability [10] [%]	cell viability [11] [%]	cell viability [12] [%]	cell viability [13] [%]	cell viability [14] [%]	cell viability [15] [%]	cell viability [16] [%]	cell viability [17] [%]	cell viability [18] [%]	cell viability [19] [%]	cell viability [20] [%]	cell viability [21] [%]	cell viability [22] [%]	cell viability [23] [%]	cell viability [24] [%]	cell viability [25] [%]	cell viability [26] [%]	cell viability [27] [%]	cell viability [28] [%]	cell viability [29] [%]	cell viability [30] [%]	cell viability [31] [%]	cell viability [32] [%]	cell viability [33] [%]
COc1cc(N2CCC(N3CCN(C)CC3)CC2)ccc1Nc1ncc(Cl)c(Nc2ccccc2[S+](=O)([O-])C(C)C)n1	106	101	129	140	142	136	144	104	23.6	12.2	31.5	83.4	87.1	138	149	159	151	147	104	33.7	37.4	40.3	99.3	88.2	146	161	177	171	161	150	53.3	58	65.5
Clc1ccc(C(c2ccccc2Cl)C(Cl)Cl)cc1 (stereo unspecified)	113	119	116	112	118	119	107	110	103	95.4	91.6	122	118	116	109	119	107	104	116	106	103	94.4	122	120	109	112	116	107	106	106	103	99.6	97.2
CCOC(=O)c1c(CSc2ccccc2)n(C)c2cc(Br)c(O)c(CN(C)C)c12	121	119	128	126	123	127	118	115	124	115	109	118	127	122	126	128	123	125	112	112	113	73.5	121	119	125	129	123	118	127	118	124	113	76.3
c1cc2c(cc1[C@H]1OC[C@H]3[C@@H]1CO[C@@H]3c1ccc3c(c1)OCO3)OCO2	122	120	118	124	122	129	133	122	119	128	122	–	–	–	–	–	–	–	–	–	–	–	–	–	–	–	–	–	–	–	–	–	–
NCCOc1cc(C(=O)Nc2cc(OCCN)c3ccccc3n2)nc(C(=O)Nc2cc(OCCN)c3ccccc3n2)c1	44.2	13.1	12.7	12.8	14.1	12.8	13.3	9.79	7.51	21.5	61.7	113	120	113	19	17.4	17	15.7	16	16.7	24.4	68.8	–	–	–	–	–	–	–	–	–	–	–
CCCCN1CCC(CNC(=O)c2c3n(c4ccccc24)CCCO3)CC1	100	104	109	112	115	109	116	110	107	95	68.9	107	105	109	112	118	101	112	114	112	90.1	68	92.8	107	106	98.5	113	105	112	112	109	94.7	78.5
O=C1c2ccccc2-c2n[nH]c3cccc1c23	96.5	102	107	111	107	108	81	106	80	46.6	12.8	106	109	107	113	109	111	84.6	106	68.4	48.9	10.7	98.1	97.2	98.5	108	112	100	87.6	101	78	62.3	16.4
O=C(Nc1cccnc1)N1CCC(Cc2cccc(Oc3ccc(C(F)(F)F)cn3)c2)CC1	116	107	109	104	110	92	83.1	76.3	68.7	27.1	15.5	109	117	117	106	118	97.6	82.2	64.2	55.6	23.5	10.4	108	108	113	114	103	88.4	81.1	62.6	50.4	29.3	13.9
